Results published in the supplement of paper PMC11451515.

Tested on: SEM cells
Experiment: cell viability relative to DMSO control; higher = less cytotoxic
Conditions: 48 h
Method in brief: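 Viability values are per-plate percentages of DMSO wells, with background from cell-free wells. Library compounds in DMSO were pin-dosed, in an 11-point threefold series from 47 μM to 0.79 nM, onto NOMO1 or SEM (500 cells/well) or P12-Ichikawa (1000 cells/well) leukemia cells in 1536-well plates (5 μl). Those cells had been adapted for at least four passages in each medium, and CellTiter-Glo One luminescence was read after 48 h at 37°C.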

[1] = HPLM + 10% dialyzed FBS, 0.000781 µM
[2] = HPLM + 10% dialyzed FBS, 0.00234 µM
[3] = HPLM + 10% dialyzed FBS, 0.00702 µM
[4] = HPLM + 10% dialyzed FBS, 0.0211 µM
[5] = HPLM + 10% dialyzed FBS, 0.0632 µM
[6] = HPLM + 10% dialyzed FBS, 0.19 µM
[7] = HPLM + 10% dialyzed FBS, 0.569 µM
[8] = HPLM + 10% dialyzed FBS, 1.71 µM
[9] = HPLM + 10% dialyzed FBS, 5.12 µM
[10] = HPLM + 10% dialyzed FBS, 15.4 µM
[11] = HPLM + 10% dialyzed FBS, 46.1 µM
[12] = RPMI 5 mM glucose + 10% FBS, 0.000781 µM
[13] = RPMI 5 mM glucose + 10% FBS, 0.00234 µM
[14] = RPMI 5 mM glucose + 10% FBS, 0.00702 µM
[15] = RPMI 5 mM glucose + 10% FBS, 0.0211 µM
[16] = RPMI 5 mM glucose + 10% FBS, 0.0632 µM
[17] = RPMI 5 mM glucose + 10% FBS, 0.19 µM
[18] = RPMI 5 mM glucose + 10% FBS, 0.569 µM
[19] = RPMI 5 mM glucose + 10% FBS, 1.71 µM
[20] = RPMI 5 mM glucose + 10% FBS, 5.12 µM
[21] = RPMI 5 mM glucose + 10% FBS, 15.4 µM
[22] = RPMI 5 mM glucose + 10% FBS, 46.1 µM
[23] = RPMI 5 mM glucose + 10% dialyzed FBS, 0.000781 µM
[24] = RPMI 5 mM glucose + 10% dialyzed FBS, 0.00234 µM
[25] = RPMI 5 mM glucose + 10% dialyzed FBS, 0.00702 µM
[26] = RPMI 5 mM glucose + 10% dialyzed FBS, 0.0211 µM
[27] = RPMI 5 mM glucose + 10% dialyzed FBS, 0.0632 µM
[28] = RPMI 5 mM glucose + 10% dialyzed FBS, 0.19 µM
[29] = RPMI 5 mM glucose + 10% dialyzed FBS, 0.569 µM
[30] = RPMI 5 mM glucose + 10% dialyzed FBS, 1.71 µM
[31] = RPMI 5 mM glucose + 10% dialyzed FBS, 5.12 µM
[32] = RPMI 5 mM glucose + 10% dialyzed FBS, 15.4 µM
[33] = RPMI 5 mM glucose + 10% dialyzed FBS, 46.1 µM

SMILES | cell viability [1] [%] | cell viability [2] [%] | cell viability [3] [%] | cell viability [4] [%] | cell viability [5] [%] | cell viability [6] [%] | cell viability [7] [%] | cell viability [8] [%] | cell viability [9] [%] | cell viability [10] [%] | cell viability [11] [%] | cell viability [12] [%] | cell viability [13] [%] | cell viability [14] [%] | cell viability [15] [%] | cell viability [16] [%] | cell viability [17] [%] | cell viability [18] [%] | cell viability [19] [%] | cell viability [20] [%] | cell viability [21] [%] | cell viability [22] [%] | cell viability [23] [%] | cell viability [24] [%] | cell viability [25] [%] | cell viability [26] [%] | cell viability [27] [%] | cell viability [28] [%] | cell viability [29] [%] | cell viability [30] [%] | cell viability [31] [%] | cell viability [32] [%] | cell viability [33] [%]
O=C(C=CC#Cc1cccc(N[S+](=O)([O-])c2ccccc2)c1)NO | 119 | 103 | 113 | 119 | 122 | 109 | 107 | 87 | 13.1 | 4.27 | 4.02 | 112 | 80.6 | 103 | 111 | 109 | 89.3 | 101 | 84.4 | 10.9 | 4.75 | 4.28 | 105 | 94.8 | 102 | 100 | 120 | 117 | 115 | 80.2 | 7.4 | 5.47 | 5.05
CN[C@@H]1[C@@H](O)[C@@H](O[C@@H]2[C@@H](O)[C@H](O[C@H]3O[C@H](CN)[C@@H](O)[C@H](O)[C@H]3O)[C@@H](N)C[C@H]2NC(=O)[C@@H](O)CN)OC[C@]1(C)O | 116 | 100 | 108 | 107 | 91.9 | 105 | 105 | 98.9 | 98 | 102 | 97.1 | 118 | 116 | 125 | 129 | 129 | 111 | 123 | 111 | 111 | 120 | 124 | 121 | 124 | 118 | 125 | 136 | 115 | 135 | 106 | 127 | 129 | 101
CCN1CCN(c2ccc(Nc3cc(N(C)C(=O)Nc4c(Cl)c(OC)cc(OC)c4Cl)ncn3)cc2)CC1 | 95 | 63.6 | 102 | 93.3 | 102 | 96.9 | 84.2 | 82.9 | 35.5 | 17 | 5.71 | 90.1 | 104 | 92.3 | 102 | 84.2 | 90.4 | 73.4 | 60.9 | 5.11 | 4.6 | 1.95 | 103 | 84 | 110 | 96 | 118 | 95.6 | 92.8 | 71.6 | 8.12 | 6.53 | 2.21
Cc1nn(Cc2ccccc2Cl)c(C)c1CN(C)CC(O)COc1ccc(Cl)cc1 (stereo unspecified) | 95.7 | 98.1 | 103 | 119 | 100 | 102 | 109 | 104 | 105 | 41.8 | 46.9 | 100 | 109 | 93 | 112 | 110 | 116 | 107 | 114 | 105 | 41.1 | 41.4 | 109 | 91.8 | 107 | 103 | 113 | 89.9 | 97.2 | 101 | 95.8 | 39.2 | 38.3
C[C@]12CC[C@@H]3c4ccc(O)cc4CC[C@H]3[C@@H]1[C@@H](O)[C@@H](O)[C@@H]2O | 104 | 119 | 112 | 115 | 116 | 127 | 123 | 86 | 125 | 99.9 | 84.1 | 87.8 | 125 | 110 | 82 | 102 | 88.5 | 94.2 | 80 | 99 | 99.4 | 38.8 | 101 | 110 | 120 | 118 | 121 | 132 | 126 | 90 | 129 | 103 | 64.5
FC1=CC=C(C=C1)N2/C=C\C=C(C(=O)NC3=CC=C(OC4=C5C=C[NH]C5=NC=C4)C(=C3)F)/C2=O | 92.6 | 101 | 104 | 112 | 106 | 109 | 115 | 107 | 99.9 | 77.3 | 75.4 | 72.6 | 69.9 | 65.1 | 76 | 67.1 | 68.1 | 73 | 71.6 | 60.5 | 46.9 | 40 | 101 | 96.9 | 98.7 | 111 | 119 | 111 | 121 | 102 | 95.7 | 74.8 | 55.4
C[S+](=O)([O-])Nc1ccc([N+](=O)[O-])cc1Oc1ccccc1 | 95.8 | 103 | 99.8 | 104 | 117 | 121 | 107 | 104 | 107 | 109 | 62.9 | 88.4 | 111 | 98.6 | 90.5 | 106 | 95.7 | 108 | 105 | 103 | 82.7 | 17.2 | 103 | 112 | 124 | 110 | 109 | 102 | 95.8 | 106 | 106 | 104 | 54.3
